Laboratory results published in PubChem BioAssay (NCI).
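Tested at 5 concentrations; 48 h exposure; 96-well plates; endpoints linearly interpolated, else capped at highest concentration. At the TGI there is no net growth.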

How the values were obtained:
Assay in all cases: NCI-60 cell line screen, 48 h
KM12 colon = system: KM12 colon
UO-31 renal = system: UO-31 renal
SF-295 CNS = system: SF-295 CNS
HL-60(TB) leukemia = system: HL-60(TB) leukemia
NCI-H460 lung = system: NCI-H460 lung
TK-10 renal = system: TK-10 renal
OVCAR-8 ovarian = system: OVCAR-8 ovarian
SF-268 CNS = system: SF-268 CNS
SK-MEL-28 melanoma = system: SK-MEL-28 melanoma
COLO 205 colon = system: COLO 205 colon
RXF 393 renal = system: RXF 393 renal
DMS 114 small cell lung = system: DMS 114 small cell lung
HCT-116 colon = system: HCT-116 colon
HCC-2998 colon = system: HCC-2998 colon
NCI-H23 lung = system: NCI-H23 lung
MALME-3M melanoma = system: MALME-3M melanoma
OVCAR-4 ovarian = system: OVCAR-4 ovarian
SR leukemia = system: SR leukemia
XF 498 CNS = system: XF 498 CNS
DMS 273 small cell lung = system: DMS 273 small cell lung
SK-MEL-2 melanoma = system: SK-MEL-2 melanoma
SF-539 CNS = system: SF-539 CNS
ACHN renal = system: ACHN renal
SNB-78 CNS = system: SNB-78 CNS
HT29 colon = system: HT29 colon
OVCAR-3 ovarian = system: OVCAR-3 ovarian
M14 melanoma = system: M14 melanoma
U251 CNS = system: U251 CNS
KM20L2 colon = system: KM20L2 colon
OVCAR-5 ovarian = system: OVCAR-5 ovarian
UACC-62 melanoma = system: UACC-62 melanoma
HOP-92 NSCLC = system: HOP-92 NSCLC
NCI-H226 lung = system: NCI-H226 lung
K-562 leukemia = system: K-562 leukemia
RPMI-8226 leukemia = system: RPMI-8226 leukemia
DLD-1 colon = system: DLD-1 colon
IGROV1 ovarian = system: IGROV1 ovarian
SK-OV-3 ovarian = system: SK-OV-3 ovarian
NCI-H522 lung = system: NCI-H522 lung
CAKI-1 renal = system: CAKI-1 renal
HOP-62 NSCLC = system: HOP-62 NSCLC
M19-MEL melanoma = system: M19-MEL melanoma
SNB-19 CNS = system: SNB-19 CNS
A549 NSCLC = system: A549 NSCLC
EKVX NSCLC = system: EKVX NSCLC
SK-MEL-5 melanoma = system: SK-MEL-5 melanoma
786-0 renal = system: 786-0 renal
CCRF-CEM leukemia = system: CCRF-CEM leukemia
LXFL 529 NSCLC = system: LXFL 529 NSCLC
SNB-75 CNS = system: SNB-75 CNS
HCT-15 colon = system: HCT-15 colon
SN12C renal = system: SN12C renal
SW-620 colon = system: SW-620 colon
UACC-257 melanoma = system: UACC-257 melanoma
A498 renal = system: A498 renal
MOLT-4 leukemia = system: MOLT-4 leukemia
HOP-18 NSCLC = system: HOP-18 NSCLC
LOX IMVI melanoma = system: LOX IMVI melanoma

Work on `COc1ccc(C(O)C(c2ccc(OCc3ccccc3)cc2)c2ccc(OCc3ccccc3)cc2)cc1` (stereo unspecified) yielded a TGI (KM12 colon) greater than 100 µM, a TGI (UO-31 renal) greater than 100 µM and a TGI (SF-295 CNS) greater than 100 µM. For the same molecule, the TGI (HL-60(TB) leukemia) was greater than 100 µM, the TGI (NCI-H460 lung) was greater than 100 µM and the TGI (TK-10 renal) was greater than 100 µM. For the same molecule, the TGI (OVCAR-8 ovarian) was greater than 100 µM, the TGI (SF-268 CNS) was greater than 100 µM and the TGI (SK-MEL-28 melanoma) was greater than 100 µM. For the same molecule, the TGI (COLO 205 colon) was greater than 100 µM, the TGI (RXF 393 renal) was greater than 100 µM and the TGI (DMS 114 small cell lung) was greater than 100 µM. The TGI (HCT-116 colon) was greater than 100 µM, the TGI (HCC-2998 colon) was greater than 100 µM and the TGI (NCI-H23 lung) was greater than 100 µM. The TGI (MALME-3M melanoma) was greater than 100 µM, the TGI (OVCAR-4 ovarian) was greater than 100 µM and the TGI (SR leukemia) was greater than 100 µM. It also gave a TGI (XF 498 CNS) greater than 100 µM, a TGI (DMS 273 small cell lung) greater than 100 µM and a TGI (SK-MEL-2 melanoma) greater than 100 µM. It also gave a TGI (SF-539 CNS) greater than 100 µM, a TGI (ACHN renal) greater than 100 µM and a TGI (SNB-78 CNS) greater than 100 µM. For the same molecule, the TGI (HT29 colon) was greater than 100 µM, the TGI (OVCAR-3 ovarian) was greater than 100 µM and the TGI (M14 melanoma) was greater than 100 µM. For the same molecule, the TGI (U251 CNS) was greater than 100 µM, the TGI (KM20L2 colon) was greater than 100 µM and the TGI (OVCAR-5 ovarian) was greater than 100 µM. For the same molecule, the TGI (UACC-62 melanoma) was greater than 100 µM, the TGI (HOP-92 NSCLC) was greater than 100 µM and the TGI (NCI-H226 lung) was greater than 100 µM. It also gave a TGI (K-562 leukemia) greater than 100 µM, a TGI (RPMI-8226 leukemia) greater than 100 µM and a TGI (DLD-1 colon) greater than 100 µM. The TGI (IGROV1 ovarian) was greater than 100 µM, the TGI (SK-OV-3 ovarian) was greater than 100 µM and the TGI (NCI-H522 lung) was greater than 100 µM. For the same molecule, the TGI (CAKI-1 renal) was greater than 100 µM, the TGI (HOP-62 NSCLC) was greater than 100 µM and the TGI (M19-MEL melanoma) was greater than 100 µM. The TGI (SNB-19 CNS) was greater than 100 µM, the TGI (A549 NSCLC) was greater than 100 µM and the TGI (EKVX NSCLC) was greater than 100 µM. The TGI (SK-MEL-5 melanoma) was greater than 100 µM, the TGI (786-0 renal) was greater than 100 µM and the TGI (CCRF-CEM leukemia) was greater than 100 µM. For the same molecule, the TGI (LXFL 529 NSCLC) was greater than 100 µM, the TGI (SNB-75 CNS) was greater than 100 µM and the TGI (HCT-15 colon) was greater than 100 µM. For the same molecule, the TGI (SN12C renal) was greater than 100 µM and the TGI (SW-620 colon) was greater than 100 µM.
In the case of `CCOc1ccc2c(c1)[n+]([O-])c(-c1ccccc1)c(N)[n+]2[O-]`, the TGI (KM12 colon) is reported as greater than 100 µM, the TGI (UACC-257 melanoma) is reported as greater than 100 µM and the TGI (UO-31 renal) is reported as greater than 100 µM. The TGI (SF-295 CNS) was greater than 100 µM, the TGI (HL-60(TB) leukemia) was greater than 100 µM and the TGI (NCI-H460 lung) was greater than 100 µM. For the same molecule, the TGI (TK-10 renal) was greater than 100 µM, the TGI (OVCAR-8 ovarian) was greater than 100 µM and the TGI (SF-268 CNS) was greater than 100 µM. It also gave a TGI (A498 renal) greater than 100 µM, a TGI (SK-MEL-28 melanoma) greater than 100 µM and a TGI (COLO 205 colon) of 81.8 µM. For the same molecule, the TGI (DMS 114 small cell lung) was greater than 100 µM, the TGI (HCC-2998 colon) was greater than 100 µM and the TGI (NCI-H23 lung) was 91.3 µM. It also gave a TGI (MALME-3M melanoma) greater than 100 µM, a TGI (OVCAR-4 ovarian) greater than 100 µM and a TGI (XF 498 CNS) greater than 100 µM. The TGI (DMS 273 small cell lung) was greater than 100 µM, the TGI (MOLT-4 leukemia) was greater than 100 µM and the TGI (SK-MEL-2 melanoma) was greater than 100 µM. For the same molecule, the TGI (SF-539 CNS) was greater than 100 µM, the TGI (ACHN renal) was greater than 100 µM and the TGI (HT29 colon) was greater than 100 µM. For the same molecule, the TGI (OVCAR-3 ovarian) was greater than 100 µM, the TGI (M14 melanoma) was greater than 100 µM and the TGI (U251 CNS) was greater than 100 µM. The TGI (KM20L2 colon) was greater than 100 µM, the TGI (OVCAR-5 ovarian) was greater than 100 µM and the TGI (UACC-62 melanoma) was greater than 100 µM. For the same molecule, the TGI (NCI-H226 lung) was greater than 100 µM, the TGI (K-562 leukemia) was greater than 100 µM and the TGI (RPMI-8226 leukemia) was greater than 100 µM. The TGI (DLD-1 colon) was greater than 100 µM, the TGI (IGROV1 ovarian) was greater than 100 µM and the TGI (SK-OV-3 ovarian) was greater than 100 µM. It also gave a TGI (NCI-H522 lung) of 32.2 µM, a TGI (CAKI-1 renal) of 89.4 µM and a TGI (HOP-62 NSCLC) greater than 100 µM. It also gave a TGI (M19-MEL melanoma) greater than 100 µM, a TGI (SNB-19 CNS) greater than 100 µM and a TGI (A549 NSCLC) greater than 100 µM. For the same molecule, the TGI (HOP-18 NSCLC) was greater than 100 µM, the TGI (EKVX NSCLC) was greater than 100 µM and the TGI (SK-MEL-5 melanoma) was 51.5 µM. The TGI (786-0 renal) was greater than 100 µM, the TGI (LOX IMVI melanoma) was greater than 100 µM and the TGI (CCRF-CEM leukemia) was greater than 100 µM. For the same molecule, the TGI (LXFL 529 NSCLC) was greater than 100 µM, the TGI (SNB-75 CNS) was greater than 100 µM and the TGI (HCT-15 colon) was greater than 100 µM. For the same molecule, the TGI (SN12C renal) was greater than 100 µM and the TGI (SW-620 colon) was greater than 100 µM.
